{"source": "patent US20220015365A1", "about": "“SYNERGISTIC HERBICIDE COMPOSITION OF BROAD-SPECTRUM FOR THE CONTROL OF WEEDS IN AGRICULTURAL CULTURES, USE OF SUCH COMPOSITION FOR PREPARATION OF PRODUCT, PRODUCT AND METHOD OF APPLICATION” (priority 2018, published 2022)", "key": {"Brachiaria decumbens": {"test_system": "Brachiaria decumbens", "assay": "Pre-emergence weed control in soil prepared with weed seeds, synergy by Colby equation", "type": "in vivo", "conditions": "35 days after application", "procedure": "(§1) Protocol: in soil prepared with weed seeds (without germination), the composition of the present invention was applied. This test was performed for two species of weeds: Brachiaria decumbens and Panicum maximum. Data were collected 35 days after application of the composition to the soil and calculated. […] Colby equation: to use Colby's approach to evaluate synergy or antagonism in combinations, the components of the combination should be tested individually in their concentration of components in the same study as the combination. The results observed for the combination are compared with the expected results of the Colby Equation (Colby, 1967). Note that this equation is derived from the definition of the probability of independence. […] […].2. Criteria of the analysis: • If the value observed is higher than expected (Obs>E): synergy; • If the value observed is lower than expected (Obs<E): antagonism."}, "Panicum maximum": {"test_system": "Panicum maximum", "assay": "Pre-emergence weed control in soil prepared with weed seeds, synergy by Colby equation", "type": "in vivo", "conditions": "35 days after application", "procedure": "as §1"}}, "data": [{"smiles": "CC(C)c1nn(C(=O)NC(C)(C)C)c(=O)n1N", "note": "[Amicarbazone, 4-Amino-N-(tert-butyl)-3-isopropyl-5-oxo-4,5-dihydro-1H-1,2,4-triazole-1-carboxamide]", "values": [{"measurement": "Control % BRADC Observed", "setting": "Brachiaria decumbens; Amicarbazone 238.00 g ai/ha", "value": 52.50, "unit": "%"}, {"measurement": "Control % BRADC Observed", "setting": "Brachiaria decumbens; Amicarbazone 442.00 g ai/ha", "value": 66.25, "unit": "%"}, {"measurement": "Control % BRADC Observed", "setting": "Brachiaria decumbens; Amicarbazone 515.60 g ai/ha", "value": 62.50, "unit": "%"}, {"measurement": "Control % BRADC Observed", "setting": "Brachiaria decumbens; Amicarbazone 571.15 g ai/ha", "value": 77.50, "unit": "%"}, {"measurement": "Control % PANMA Observed", "setting": "Panicum maximum; Amicarbazone 238.00 g ai/ha", "value": 83.25, "unit": "%"}, {"measurement": "Control % PANMA Observed", "setting": "Panicum maximum; Amicarbazone 317.30 g ai/ha", "value": 75.00, "unit": "%"}, {"measurement": "Control % PANMA Observed", "setting": "Panicum maximum; Amicarbazone 442.00 g ai/ha", "value": 0.00, "unit": "%"}, {"measurement": "Control % PANMA Observed", "setting": "Panicum maximum; Amicarbazone 515.60 g ai/ha", "value": 90.00, "unit": "%"}, {"measurement": "Control % PANMA Observed", "setting": "Panicum maximum; Amicarbazone 571.15 g ai/ha", "value": 91.25, "unit": "%"}, {"measurement": "Control % PANMA Observed", "setting": "Panicum maximum; Amicarbazone 589.30 g ai/ha", "value": 90.00, "unit": "%"}, {"measurement": "Control % PANMA Observed", "setting": "Panicum maximum; Amicarbazone 594.00 g ai/ha", "value": 86.25, "unit": "%"}, {"measurement": "Control % PANMA Observed", "setting": "Panicum maximum; Amicarbazone 687.50 g ai/ha", "value": 95.00, "unit": "%"}, {"measurement": "Control % PANMA Observed", "setting": "Panicum maximum; Amicarbazone 761.54 g ai/ha", "value": 98.25, "unit": "%"}, {"measurement": "Control % PANMA Observed", "setting": "Panicum maximum; Amicarbazone 792.00 g ai/ha", "value": 88.75, "unit": "%"}]}, {"smiles": "C#CCN1C(=O)COc2cc(F)c(N3C(=O)C4=C(CCCC4)C3=O)cc21", "note": "[Flumioxazin, N-(7-Fluor-3,4-dihydro-3-oxo-4-prop-2-inyl-2H-1,4-benzoxazin-6-yl)cyclohex-1-en-1,2-dicarboximide]", "values": [{"measurement": "Control % BRADC Observed", "setting": "Brachiaria decumbens; Flumioxazin 47.60 g ai/ha", "value": 81.25, "unit": "%"}, {"measurement": "Control % BRADC Observed", "setting": "Brachiaria decumbens; Flumioxazin 103.10 g ai/ha", "value": 83.75, "unit": "%"}, {"measurement": "Control % BRADC Observed", "setting": "Brachiaria decumbens; Flumioxazin 176.80 g ai/ha", "value": 92.75, "unit": "%"}, {"measurement": "Control % BRADC Observed", "setting": "Brachiaria decumbens; Flumioxazin 380.00 g ai/ha", "value": 90.00, "unit": "%"}, {"measurement": "Control % PANMA Observed", "setting": "Panicum maximum; Flumioxazin 24.75 g ai/ha", "value": 81.25, "unit": "%"}, {"measurement": "Control % PANMA Observed", "setting": "Panicum maximum; Flumioxazin 33.00 g ai/ha", "value": 88.75, "unit": "%"}, {"measurement": "Control % PANMA Observed", "setting": "Panicum maximum; Flumioxazin 47.60 g ai/ha", "value": 89.50, "unit": "%"}, {"measurement": "Control % PANMA Observed", "setting": "Panicum maximum; Flumioxazin 63.46 g ai/ha", "value": 97.00, "unit": "%"}, {"measurement": "Control % PANMA Observed", "setting": "Panicum maximum; Flumioxazin 103.10 g ai/ha", "value": 98.75, "unit": "%"}, {"measurement": "Control % PANMA Observed", "setting": "Panicum maximum; Flumioxazin 137.50 g ai/ha", "value": 97.50, "unit": "%"}, {"measurement": "Control % PANMA Observed", "setting": "Panicum maximum; Flumioxazin 176.80 g ai/ha", "value": 97.55, "unit": "%"}, {"measurement": "Control % PANMA Observed", "setting": "Panicum maximum; Flumioxazin 235.70 g ai/ha", "value": 99.00, "unit": "%"}, {"measurement": "Control % PANMA Observed", "setting": "Panicum maximum; Flumioxazin 380.00 g ai/ha", "value": 97.50, "unit": "%"}, {"measurement": "Control % PANMA Observed", "setting": "Panicum maximum; Flumioxazin 507.70 g ai/ha", "value": 98.75, "unit": "%"}]}]}
